From patent publication US20080201790A1, “Method and product for regulating cell responsiveness to external signals” (priority 1993, published 2008) come the findings set out here.

This experiment has as its system p42/p44 MAPK. In words: MAPK assay (DEAE-Sephacel, EGFR662-681 peptide) in L929 cells. Format: cell-based, murine. As for the experimental part:
In panel A cells were treated for 10 minutes with the indicated concentration of TNFα. JNK activation was measured using a solid phase kinase assay resulting in phosphorylation of GST-Jun. In […] the time course of MAPK activation is shown. MAPK was isolated from cell lysates on DEAE sephacel columns and MAPK activation was measured by phosphorylation of the EGFR peptide substrate. Panel C depicts the concentration curve of MAPK activation by TNFα. Cells were treated with the indicated concentration of TNFα and MAPK was assayed.
FIG. 26 depicts the activation of MAPK by bFGF in L929 cells. Serum starved L929 cells were stimulated for 10 min with the indicated concentration of bFGF.
Cell lines and culture. L929 cells (ATCC CCL1 were maintained in Dulbecco's modified Eagle's medium with 5% newborn calf serum and 5% bovine calf serum (BCS) supplemented with 100 ug/ml streptomycin and 100 U/ml penicillin. The cells were grown in 10 cm dishes at 37° C. in 7.5% CO2. Cells were made quiescent where indicated by incubation in Dulbecco's modified Eagle's medium and 0.1% bovine serum albumin for 24 h. Recombinant murine TNFα and recombinant human bFGF (147aa) were from R&D Systems, Minneapolis, Minn. Cells were pretreated where indicated with the MEK-1 inhibitor PD#098059 (Parke-Davis Pharmaceutical Corp. Ann Arbor, Mich.) for 1 h at 37° C. Cells were stimulated by incubation with the indicated cytokine or growth factor for various times at 37° C. Stimulation was stopped by rinsing the plates twice with ice cold phosphate buffered saline (PBS) and lysing the cells in the appropriate lysis buffer. Cells were scraped from the plates and nuclei were pelleted for 10 min at 14,000 RPM in a microcentrifuge. JNK assay. JNK activity was measured using a solid state kinase assay in which glutathione S-transferase-c-Jun (1-79) (GST-JUN) cound to glutathione-Sepharose 4B beads was used to affinity purify JNK and then JNK activity was measured in an in vitro kinase assay using the sepharose bound GST-Jun as a substrate (Hibi, M., et al. (1993) Genes & Development 7:2135-2148). Stimulated or unstimulated cells were lysed in 0.5% Nonidet P-40, 20 mM HEPES pH 7.2, 100 mM NaCl, 2 mM dithiothreitol, 1 mM EDTA, 1.0 mM phenylmethylsulfonylfluoride, 1 μg/ml aprotinin and the nuclei pelleted. Lysates were normalized for protein content. JNK was affinity purified from 50-100 μg of cell lysate by the addition of 10 ul of GST-Jun sepharose slurry (2 μg GST-Jun). Binding to GST-Jun efficiently isolates the two major forms of JNK (p45 and p55) and under the conditions used JNK isolation was linear for 10-250 μg of cell lysate. The lysates were rotated at 4° C. for 1-3 h. Beads were washed twice in lysis buffer and then twice in PAN (10 mM PIPES, pH 7.0, 100 mM NaCl, 21 μg/ml aprotinin). Kinase reactions were carried out at 30° C. for 15 min in 20 mM Hepes pH 7.2, 20 mM β-glycerophosphate, 10 mM p-nitrophenyl phosphate, 10 mM MgCl2, 1 mM dithiothreitol, 50 μm sodium vanadate, 10 μCi γ^32P-ATP 4300 Ci/mmole. The kinase reaction was linear from 0-30 min. MAPK Assay MAPK activity was measured exactly as described previously (Gardner, A. M., et al. (1994) Meth. Enzymol. 238:258-270) with the exception that MonoQ FPLC fractionation was replaced by step elution from a DEAE-Sephacel column using 0.5 M NaCl in loading buffer. The eluate was assayed in triplicate using the epidermal growth factor receptor 662-681 peptide (EGFR662-681) as a selective substrate for MAPK activity (Heasley, L. E., et al. (1994) American Journal of Physiology (Renal Fluid Electrolyte Physiol. 36) 267:F366-F373). […] Cells were lysed by scraping in ice cold RIPA buffer (50 mM Tris-HCl, pH 7.2, 150 mM NaCl, 0.1% SDS, 0.5% sodium deoxycholate, 1.0% Triton X-100, 10 mM sodium pyrophosphate, 25 mM β-glycerophosphate, 2 mM sodium vanadate, 2.1 μg/ml aprotinin) and the nuclei were pelletted. […]

Take TNFα: the “MAPK activity stimulated above basal” value (1 ng/ml TNFα) is 20%. In addition, for the setting “1 ng/ml TNFα, FIG. 27 panel B”, the “effect on MAPK activity” value is recorded as “only modest stimulatory effects on MAPK activity”. Under “L929 cells”, the “concentration required to stimulate p42/p44 MAPK 2-3 fold” value was “Greater than 10 ng/ml”, the “effect on bFGF stimulation of MAPK activity” value is on record as “had little or no effect on bFGF stimulation of MAPK activity” and the “time to maximal stimulation of p42/p44 MAPK activity” value was in the range of 5 to 10 min.

“bFGF: recombinant human bFGF (147aa), basic fibroblast growth factor”: the “concentrations giving maximal stimulation of MAPK activity” value (serum starved L929 cells, 10 min) lay within 0.25 to 0.5 ng/mL.
